≈ marks a conversion by molar mass, not a printed value. Like-named read-outs stand apart in the source and are kept apart here.
Key:
S. aureus SA0077 [1] = assay: microbe, parasite or virus in culture; conditions: Staphylococcus aureus
S. aureus RN4220 [2] = assay: microbe, parasite or virus in culture; conditions: Staphylococcus aureus, RN4220, read-out: MIC values
S. aureus SA0422 [3] = assay: microbe, parasite or virus in culture; conditions: Staphylococcus aureus
S. aureus RN4220 [4] = system: S. aureus RN4220
S. aureus SA0085 [5] = assay: microbe, parasite or virus in culture; conditions: Staphylococcus aureus
S. aureus SA0736 [6] = assay: microbe, parasite or virus in culture; conditions: Staphylococcus aureus
S. aureus ATCC 29213 [7] = assay: microbe, parasite or virus in culture; conditions: Staphylococcus aureus
S. aureus SA0085 [8] = system: S. aureus SA0085
S. aureus ATCC 29213 [9] = system: S. aureus ATCC 29213
S. aureus SA0422 [10] = system: S. aureus SA0422
S. aureus SA0736 [11] = system: S. aureus SA0736
[12] = system: S. aureus derivative strains
S. aureus SA0077 [13] = system: S. aureus SA0077
[14] = SA0077, read-out: MIC values, Table S1: SA0077 Abf (passages on antibiotic-free media)
[15] = SA0077, read-out: MIC values, Table S1: SA0077 DAP (derivative after 40 passages on daptomycin)
[16] = SA0077, read-out: MIC values, Table S1: SA0077 VAN (derivative after 40 passages on vancomycin)
[17] = SA0422, read-out: MIC values, Table S1: SA0422 DAP (derivative after 40 passages on daptomycin)
[18] = Table S1: RN4220 ∆ (strain with deletion in SACOL1927)
[19] = SA0085, read-out: MIC values, Table S1: SA0085 Abf (passages on antibiotic-free media)
[20] = SA0085, read-out: MIC values, Table S1: SA0085 VAN (derivative after 40 passages on vancomycin)
[21] = SA0736, read-out: MIC values, Table S1: SA0736 DAP-Y (40 passages on daptomycin, yellow colonies)
[22] = SA0736, read-out: MIC values, Table S1: SA0736 VAN (derivative after 40 passages on vancomycin)
[23] = ATCC29213, read-out: MIC values
[24] = ATCC29213, read-out: MIC values, Table S1: ATCC 29213 DAP (derivative after 40 passages on daptomycin)
[25] = SA0422, read-out: MIC values, Table S1: SA0422 VAN (derivative after 40 passages on vancomycin)

CO[C@@]1(NC(=O)Cc2cccs2)C(=O)N2C(C(=O)O)=C(COC(N)=O)CS[C@@H]21 [Cefoxitin]
MIC (S. aureus SA0077 [1]; SA0077, read-out: MIC values): 256 µg/mL (≈ 599 µM)
MIC (S. aureus SA0077 [1]; [14]): 64 µg/mL (≈ 150 µM)
MIC (S. aureus SA0077 [1]; [15]): 128 µg/mL (≈ 299 µM)
MIC (S. aureus SA0077 [1]; [16]): 128 µg/mL (≈ 299 µM)
MIC (S. aureus RN4220 [2]): 4 µg/mL (≈ 9.36 µM)
MIC (S. aureus SA0422 [3]; SA0422, read-out: MIC values): 256 µg/mL (≈ 599 µM)
MIC (S. aureus SA0422 [3]; [17]): 64 µg/mL (≈ 150 µM)
MIC values (S. aureus RN4220 [4]; [18]): 4 µg/mL (≈ 9.36 µM)
MIC (S. aureus SA0085 [5]; SA0085, read-out: MIC values): 256 µg/mL (≈ 599 µM)
MIC (S. aureus SA0085 [5]; [19]): 4 µg/mL (≈ 9.36 µM)
MIC (S. aureus SA0085 [5]; [20]): 4 µg/mL (≈ 9.36 µM)
MIC (S. aureus SA0736 [6]; SA0736, read-out: MIC values): 64 µg/mL (≈ 150 µM)
MIC (S. aureus SA0736 [6]; [21]): 8 µg/mL (≈ 18.7 µM)
MIC (S. aureus SA0736 [6]; [22]): 128 µg/mL (≈ 299 µM)
MIC (S. aureus ATCC 29213 [7]; [23]): 4 µg/mL (≈ 9.36 µM)
MIC (S. aureus ATCC 29213 [7]; [24]): 2 µg/mL (≈ 4.68 µM)

CCO/N=C(\C(=O)N[C@@H]1C(=O)N2C(C(=O)[O-])=C(Sc3nc(-c4cc[n+](C)cc4)cs3)CS[C@H]12)c1nsc(N)n1 [Ceftaroline]
MIC (S. aureus SA0077 [1]; SA0077, read-out: MIC values): 1 µg/mL (≈ 1.65 µM)
MIC (S. aureus SA0077 [1]; [15]): 0.5 µg/mL (≈ 0.827 µM)
MIC (S. aureus RN4220 [2]): 0.5 µg/mL (≈ 0.827 µM)
MIC (S. aureus SA0422 [3]; SA0422, read-out: MIC values): 2 µg/mL (≈ 3.31 µM)
MIC (S. aureus SA0422 [3]; [17]): 0.5 µg/mL (≈ 0.827 µM)
MIC (S. aureus SA0422 [3]; [25]): 1 µg/mL (≈ 1.65 µM)
MIC values (S. aureus RN4220 [4]; [18]): 0.5 µg/mL (≈ 0.827 µM)
MIC (S. aureus SA0085 [5]; SA0085, read-out: MIC values): 1 µg/mL (≈ 1.65 µM)
MIC (S. aureus SA0085 [5]; [19]): 0.5 µg/mL (≈ 0.827 µM)
MIC (S. aureus SA0085 [5]; [20]): 0.125 µg/mL (≈ 0.207 µM)
MIC (S. aureus SA0736 [6]; SA0736, read-out: MIC values): 1 µg/mL (≈ 1.65 µM)
MIC (S. aureus SA0736 [6]; SA0736, read-out: MIC values, Table S1: SA0736 DAP-W (40 passages on daptomycin, white colonies)): 0.5 µg/mL (≈ 0.827 µM)
MIC (S. aureus SA0736 [6]; [21]): 0.5 µg/mL (≈ 0.827 µM)
MIC (S. aureus SA0736 [6]; [22]): 0.5 µg/mL (≈ 0.827 µM)
MIC (S. aureus ATCC 29213 [7]; [23]): 0.125 µg/mL (≈ 0.207 µM)
MIC (S. aureus ATCC 29213 [7]; [24]): 0.25 µg/mL (≈ 0.413 µM)

Cc1onc(-c2ccccc2)c1C(=O)N[C@@H]1C(=O)N2[C@@H]1SC(C)(C)[C@@H]2C(=O)O [Oxacillin]
MIC (S. aureus SA0077 [1]; SA0077, read-out: MIC values): 512 µg/mL (≈ 1280 µM)
MIC (S. aureus SA0077 [1]; [14]): 128 µg/mL (≈ 319 µM)
MIC (S. aureus SA0077 [1]; [15]): 256 µg/mL (≈ 638 µM)
MIC (S. aureus SA0077 [1]; [16]): 32 µg/mL (≈ 79.7 µM)
MIC (S. aureus RN4220 [2]): < 0.5 µg/mL
MIC (S. aureus SA0422 [3]; SA0422, read-out: MIC values): 512 µg/mL (≈ 1280 µM)
MIC (S. aureus SA0422 [3]; [17]): 2 µg/mL (≈ 4.98 µM)
MIC (S. aureus SA0422 [3]; [25]): 256 µg/mL (≈ 638 µM)
MIC values (S. aureus RN4220 [4]; [18]): < 0.5 µg/mL
MIC (S. aureus SA0085 [5]; SA0085, read-out: MIC before passaging, SA0085, before passaging in antibiotic-free media): 512 µg/mL (≈ 1280 µM)
MIC (S. aureus SA0085 [5]; SA0085, read-out: MIC values): 256 µg/mL (≈ 638 µM)
MIC (S. aureus SA0085 [5]; [19]): 1 µg/mL (≈ 2.49 µM)
MIC (S. aureus SA0085 [5]; [20]): 32 µg/mL (≈ 79.7 µM)
MIC (S. aureus SA0736 [6]; SA0736, read-out: MIC values): 64 µg/mL (≈ 159 µM)
MIC (S. aureus SA0736 [6]; [21]): 16 µg/mL (≈ 39.9 µM)
MIC (S. aureus ATCC 29213 [7]; [23]): < 0.5 µg/mL
MIC after 40 passages in antibiotic-free media (S. aureus SA0085 [8]; SA0085, after 40 passages in antibiotic-free media (SCCmec excision)): 1 µg/mL (≈ 2.49 µM)

telavancin [TLV]
MIC (S. aureus ATCC 29213 [9]; ATCC 29213, selecting agent DAP, passage 5): <0.03 µg/mL
MIC (S. aureus ATCC 29213 [9]; ATCC 29213, selecting agent DAP, passage 20): 0.125 µg/mL
MIC (S. aureus ATCC 29213 [9]; ATCC 29213, selecting agent DAP, passage 40): 0.25 µg/mL
MIC (S. aureus ATCC 29213 [9]; ATCC 29213, selecting agent VAN, passage 0): <0.03 µg/mL
MIC (S. aureus ATCC 29213 [9]; ATCC 29213, selecting agent VAN, passage 5): <0.03 µg/mL
MIC (S. aureus ATCC 29213 [9]; ATCC 29213, selecting agent VAN, passage 20): 0.125 µg/mL
MIC (S. aureus ATCC 29213 [9]; ATCC 29213, selecting agent VAN, passage 40): 0.5 µg/mL
MIC (S. aureus SA0422 [10]; SA0422, selecting agent DAP, passage 5): 0.125 µg/mL
MIC (S. aureus SA0422 [10]; SA0422, selecting agent DAP, passage 20): 0.25 µg/mL
MIC (S. aureus SA0422 [10]; SA0422, selecting agent DAP, passage 40): 0.25 µg/mL
MIC (S. aureus SA0422 [10]; SA0422, selecting agent VAN, passage 0): 0.125 µg/mL
MIC (S. aureus SA0422 [10]; SA0422, selecting agent VAN, passage 5): 0.25 µg/mL
MIC (S. aureus SA0422 [10]; SA0422, selecting agent VAN, passage 20): 0.5 µg/mL
MIC (S. aureus SA0422 [10]; SA0422, selecting agent VAN, passage 40): 1 µg/mL
MIC (S. aureus SA0736 [11]; SA0736, selecting agent DAP, passage 5): 0.125 µg/mL
MIC (S. aureus SA0736 [11]; SA0736, selecting agent DAP, passage 20): 0.125 µg/mL
MIC (S. aureus SA0736 [11]; SA0736, selecting agent DAP, passage 40W (white colonies)): 0.125 µg/mL
MIC (S. aureus SA0736 [11]; SA0736, selecting agent DAP, passage 40Y (yellow colonies)): 0.125 µg/mL
MIC (S. aureus SA0736 [11]; SA0736, selecting agent VAN, passage 5): 0.25 µg/mL
MIC (S. aureus SA0736 [11]; SA0736, selecting agent VAN, passage 20): 0.5 µg/mL
MIC (S. aureus SA0736 [11]; SA0736, selecting agent VAN, passage 40): 0.5 µg/mL
MIC values (S. aureus SA0736 [11]; Table S1: SA0736 DAP-W (40 passages on daptomycin, white colonies)): .125 µg/mL
MIC values (S. aureus SA0736 [11]; Table S1: SA0736 DAP-Y (40 passages on daptomycin, yellow colonies)): .125 µg/mL
MIC values (S. aureus RN4220 [4]; Table S1: RN4220 WT): 0.06 µg/mL
MIC values (S. aureus RN4220 [4]; [18]): 0.06 µg/mL
MIC ([12]; daptomycin-selected derivative strains without WalK mutations (all except SA0422), susceptible): ≤ 0.125 µg/mL
MIC by the end of daptomycin selection ([12]; derivatives, end of daptomycin selection): 0.125 to 0.25 µg/mL
MIC (S. aureus SA0085 [8]; SA0085, selecting agent DAP, passage 5): 0.06 µg/mL
MIC (S. aureus SA0085 [8]; SA0085, selecting agent DAP, passage 20): 0.06 µg/mL
MIC (S. aureus SA0085 [8]; SA0085, selecting agent DAP, passage 40): 0.25 µg/mL
MIC (S. aureus SA0085 [8]; SA0085, selecting agent VAN, passage 0): 0.06 µg/mL
MIC (S. aureus SA0085 [8]; SA0085, selecting agent VAN, passage 5): 0.06 µg/mL
MIC (S. aureus SA0085 [8]; SA0085, selecting agent VAN, passage 20): 0.25 µg/mL
MIC (S. aureus SA0085 [8]; SA0085, selecting agent VAN, passage 40): 0.25 µg/mL
MIC values (S. aureus SA0085 [8]; Table S1: SA0085 Abf (passages on antibiotic-free media)): 0.06 µg/mL
MIC (S. aureus SA0077 [13]; SA0077, selecting agent DAP, passage 20): 0.125 µg/mL
MIC (S. aureus SA0077 [13]; SA0077, selecting agent DAP, passage 40): 0.125 µg/mL
MIC (S. aureus SA0077 [13]; SA0077, selecting agent VAN, passage 0): 0.125 µg/mL
MIC (S. aureus SA0077 [13]; SA0077, selecting agent VAN, passage 5): 0.06 µg/mL
MIC (S. aureus SA0077 [13]; SA0077, selecting agent VAN, passage 20): 0.5 µg/mL
MIC (S. aureus SA0077 [13]; SA0077, selecting agent VAN, passage 40): 1 µg/mL
MIC values (S. aureus SA0077 [13]; Table S1: SA0077 Abf (passages on antibiotic-free media)): 0.03 µg/mL

From paper PMC10215302 (Antibiotics, 2023)
